This note sets out measurements from paper PMC12263422, “Cryo-EM structure of the human THIK-1 K2P K^+ channel reveals a lower Y gate regulated by lipids and anesthetics” (Nature Structural & Molecular Biology, 2025).

This assay has as its target T1, THIK-1 T237A (Homo sapiens, UniProt Q9HB14, T237A).
T1 construct: expressed in transfected cells; host or cells: Xenopus oocytes (mRNA injection)
T1 sequence (Q9HB14 1-408 T237A): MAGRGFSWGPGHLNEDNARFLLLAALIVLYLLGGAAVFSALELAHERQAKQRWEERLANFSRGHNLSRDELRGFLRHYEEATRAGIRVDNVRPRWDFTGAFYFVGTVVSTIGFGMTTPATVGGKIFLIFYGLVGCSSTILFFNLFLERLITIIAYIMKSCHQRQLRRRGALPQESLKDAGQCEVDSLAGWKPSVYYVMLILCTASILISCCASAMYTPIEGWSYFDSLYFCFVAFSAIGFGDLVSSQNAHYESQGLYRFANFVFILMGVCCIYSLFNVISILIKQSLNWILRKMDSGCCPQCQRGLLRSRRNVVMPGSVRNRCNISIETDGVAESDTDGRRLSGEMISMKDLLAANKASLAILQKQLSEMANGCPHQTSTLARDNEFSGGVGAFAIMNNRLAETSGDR
Kind of assay: Inside-out excised patch recordings, oocytes, THIK-1 T237A mutant. Format: cell-based. The source says: Human K2P13.1 THIK-1 (GenBank accession number: NM_022054) and human K2P12.1 THIK-2 (NM_022055.1) were used in this study. For functional expression studies, the respective K^+ channel subtype coding sequences were subcloned into the oocyte expression vector pSGEM or the dual-purpose expression vector pFAW[41] and verified by sequencing. All mutant channels were obtained by site-directed mutagenesis and verified by sequencing. To increase surface expression and macroscopic currents, measurements of THIK-2 channels used a mutated ER retention motif, (R11A R12A R14A R15A R16A; THIK-2*)[20]. Vector DNA was linearized with NheI or MluI, and mRNA was synthesized in vitro using the SP6 or T7 AmpliCap Max High Yield Message Maker Kit (Cellscript, USA) or HiScribe T7 ARCA mRNA Kit (New England Biolabs).
Two-electrode voltage–clamp (TEVC) studies were performed in Xenopus oocytes. All animal use conformed to the Guide for the Care and Use of Laboratory Animals (NIH Publication 85–23), and all experiments using Xenopus toads were approved by the local ethics panels. Oocytes were stored at 17 °C in ND96 recording solution composed of (in mM): 96 NaCl, 2 KCl, 1.8 CaCl2, 1 MgCl2, 5 HEPES (pH 7.5 adjusted with NaOH and HCl), supplemented with Na-pyruvate (275 mg L^–1), theophylline (90 mg L^–1) and gentamicin (50 mg L^–1). Oocytes were injected with 1 ng mRNA for WT or mutant channels, and were incubated for 24–48 h at 17 °C. Two-electrode voltage clamp recordings were then performed as previously described[42],[43]. For macroscopic patch–clamp measurements, oocytes were obtained as described above incubated at 17 °C in a solution containing (mM): 54 NaCl, 30 KCl, 2.4 NaHCO3, 0.82 MgSO4 ×7 H2O, 0.41 CaCl2, 0.33 Ca(NO3)2 ×4 H2O and 7.5 TRIS (pH 7.4 adjusted with NaOH and HCl) for 1–4 days before use. Excised patch recordings in inside-out configuration conditions were performed at room temperature. Patch pipettes were made from thick-walled borosilicate glass GB 200TF-8P (Science Products), had resistances of 0.2–0.5 MΩ (tip diameter, 10–25 µm) and filled with a pipette solution (in mM): 120 KCl, 10 HEPES and 3.6 CaCl2 (pH 7.4 adjusted with KOH and HCl). Intracellular bath solutions and compounds were applied to the cytoplasmic side of excised patches for the various K^+ channels through a gravity flow multi-barrel pipette system. The intracellular solution had the following composition (in mM): 120 KCl, 10 HEPES, 2 EGTA and 1 pyrophosphate (pH adjusted with KOH and HCl). Currents were recorded with an EPC10 amplifier (HEKA Electronics) and sampled at 10 kHz or higher, with filtering set to 3 kHz (–3 dB) or higher, as appropriate for sampling rate. For measurements of GPCR activation, whole-cell currents were recorded for THIK-1 in transiently transfected HEK-293 cells. Cells were stimulated by a ramp protocol between −100 and +60 mV (holding potential, −80 mV). The pipette solution was composed of (in mM): 140 KCl, 2 MgCl2, 1 CaCl2, 2.5 EGTA and 10 HEPES (pH 7.3 adjusted with KOH and HCl). The extracellular bath solution had the following composition (in mM): 135 NaCl, 5 KCl, 2 MgCl2, 2 CaCl2, 10 glucose and 10 HEPES pH (pH 7.3 adjusted with NaOH and HCl). Oxotremorine M (Oxo-M) was added to extracellular bath solution to obtain the final concentration. Single-channel currents were recorded with an Axopatch 200B amplifier through a Digidata 1440A digitizer (Molecular Devices). Data were filtered at 2 kHz and recorded at a 200-kHz sampling rate with the program Clampex (Molecular Devices). Pipette solution and bath solution for cell-attached recordings contained (in mM): 140 KCl, 2 MgCl2, 1 CaCl2 and 10 HEPES (pH 7.4 adjusted with KOH and HCl). For inside-out recordings, the bath solution contained (in mM): 140 KCl, 2 MgCl2, 1 CaCl2 and 10 HEPES (pH 7.2 adjusted with KOH and HCl). All experiments were conducted at room temperature. […]

Several values for one entry are separate records, joined by “and”; a condition that tells them apart may be missing. Equal values may be shown once.

As a reminder, the IC50 is the concentration at which inhibition is half-maximal. High values mean lower potency, low ones higher potency. In the case of `CCCCC[N+](CCCCC)(CCCCC)CCCCC` [TPenA, tetrapentylammonium], the IC50 reads like this: (TPenA IC50, T237A mutant) 751 ± 69 µM; (TPenA IC50, THIK-1 T237A, individual recordings) 1130 µM and 808 µM and 597 µM and 535 µM and 580 µM and 782 µM and 1030 µM and 536 µM and 917 µM and 590 µM; (TPenA IC50, THIK-1 T237A, mean) 751 µM.

In general, inhibition refers to the percentage by which the read-out fell short of the control. In the case of `FCOC(C(F)(F)F)C(F)(F)F` [Sevoflurane, sevoflurane], for the setting “0.24 mM Sevoflurane, T237A, individual recordings”, the “Inhibition (%)” value is 3.46% and 13.30% and 10.43% and 14.31% and 9.40% and 9.31%. In addition, the inhibition at 240 µM (0.24 mM Sevoflurane, T237A, mean) was 10%. For the same compound, for the setting “THIK-1 T237A, 0.023 mM sevoflurane”, the inhibition at 23 µM is 2.46%. The inhibition at 47 µM (THIK-1 T237A, 0.047 mM sevoflurane) is 5.91%. For the setting “THIK-1 T237A, 0.468 mM sevoflurane”, this compound showed an inhibition at 468 µM of 21.7%. This compound showed an inhibition at 2340 µM (THIK-1 T237A, 2.34 mM sevoflurane) of 65.6%.

Take `FC(F)(F)C(Cl)Br` (stereo not drawn) [halothane]: the “Inhibition (%)” value (3.0 mM halothane, T237A, individual recordings) was 33.289% and 24.219% and 32.586% and 20.723% and 17.184% and 21.968% and 14.425% and 17.317% and 20.857% and 12.818% and 13.953% and 26.198% and 19.691% and 2.253% and 19.772% and 18.717% and 25.052% and 20.656% and 33.770% and 18.734% and 25.692% and 28.421% and 33.333%. Testing at 152 µM (halothane 0.152 mM, THIK-1 T237A) gave an inhibition of 2.14%. Under “halothane 0.304 mM, THIK-1 T237A”, this compound gave an inhibition at 304 µM of 5.74%. The compound further showed an inhibition at 1520 µM (halothane 1.52 mM, THIK-1 T237A) of 14%. In addition, the inhibition at 3040 µM (halothane 3.04 mM, THIK-1 T237A) turned out to be 21.8%. Where the note is “halothane 15.2 mM, THIK-1 T237A”, this compound gave an inhibition at 15200 µM of 61.5%.

With `FC(F)OC(Cl)C(F)(F)F` (stereo not drawn) [Isoflurane, isoflurane], under “4.9 mM Isoflurane, T237A, individual recordings”, the “Inhibition (%)” value was 17.406% and 8.395% and 11.371% and 16.439% and 18.927% and 20.492% and 11.299%. Besides, the inhibition at 242 µM (isoflurane 0.242 mM, THIK-1 T237A) came to 3.32%. For the setting “isoflurane 0.485 mM, THIK-1 T237A”, at 485 µM the inhibition was 6.3%. 2420 µM produced 10.5% inhibition (isoflurane 2.42 mM, THIK-1 T237A). Under “isoflurane 4.85 mM, THIK-1 T237A”, 4850 µM produced 14.9% inhibition. Besides, for the setting “isoflurane 24.2 mM, THIK-1 T237A”, at 24200 µM the inhibition was 41.2%.
